Data reported in patent US5856189A, “Cell culture model for drug bioavailability” (priority 1997, dated 1999).

Assays:
[1] = Intrinsic 1'-OH-MDZ formation clearance, human jejunal mucosa/microsomes; type: in vitro ADME; settings: jejunal microsomes; eight human jejunal preparations, Vmax/Km; read-out: Microsomal intrinsic clearance (1'-OH-MDZ formation), jejunum
Method: (§1) For comparison, an intrinsic 1'-OH-MDZ formation clearance was determined for eight paired human duodenal and jejunal mucosae. The mucosal mass was removed from ~1 foot sections of duodenum and jejunum and total homogenate and microsomes were prepared, as described above. […] Microsomes were incubated with varying concentrations of MDZ for determination of Km and Vmax parameters for 1'-hydroxylation.
(§2) The total amount of microsomal protein per gram of mucosa was determined from the following relationship: [formula] This calculation assumes that CYP3A4 found in mucosal homogenate resides exclusively within the microsomal fraction. The microsomal intrinsic formation clearance was calculated as the ratio of Vmax to Km. The intrinsic 1'-OH-MDZ formation clearance per gram of mucosa was calculated as the product of the microsomal intrinsic formation clearance and the computed amount of microsomal protein per gram of mucosa.

[2] = test system: human jejunal microsomes (CYP3A); test: as above; type: in vitro ADME; settings: eight human jejunal preparations, Vmax/Km; listed as MDZ
Method: as §1, §2

CYP3A (Caco-2 cells) = CYP3A (Caco-2 cells) (Homo sapiens, UniProt P08684)
CYP3A (Caco-2 cells), sequence (P08684 2-503): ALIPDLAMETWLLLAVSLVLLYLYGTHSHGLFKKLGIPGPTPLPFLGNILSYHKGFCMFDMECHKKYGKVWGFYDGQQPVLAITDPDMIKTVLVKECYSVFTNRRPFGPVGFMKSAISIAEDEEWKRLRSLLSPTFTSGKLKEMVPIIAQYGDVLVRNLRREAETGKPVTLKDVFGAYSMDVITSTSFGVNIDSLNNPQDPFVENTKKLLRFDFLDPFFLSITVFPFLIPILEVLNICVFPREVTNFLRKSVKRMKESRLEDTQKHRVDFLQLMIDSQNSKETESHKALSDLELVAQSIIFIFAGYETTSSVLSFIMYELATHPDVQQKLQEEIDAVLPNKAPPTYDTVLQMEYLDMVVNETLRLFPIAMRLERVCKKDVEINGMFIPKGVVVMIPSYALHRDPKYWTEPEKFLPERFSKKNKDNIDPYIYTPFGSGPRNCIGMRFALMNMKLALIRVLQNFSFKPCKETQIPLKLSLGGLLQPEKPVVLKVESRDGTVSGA
Method: Standards were also prepared in duplicate. Known amounts of MDZ and 1'-OH-MDZ (1-50 ng) were combined with 100 mM potassium phosphate buffer, pH 7.4.
Unknowns and standards were extracted with 5 mL ethyl acetate and the upper organic layer transferred to clean tubes. The solvent was evaporated to dryness under a stream of nitrogen. The remaining solvent was reconstituted in 100 μL derivatizing reagent (10% N-methyl-N-(t-butyldimethylsilyl)trifluoroacetamide in acetonitrile).
At the end of this period, the medium was replaced with medium not containing vitamin D (except that contributed by the 5% FBS). Next, 4 μM MDZ was added to the apical (luminal) or basolateral (serosal) medium of the cells.
Parent drug and metabolite concentrations measured at 1 and 2 hours after MDZ administration were used for computation. The amount of 1'-OH-MDZ formed during this interval was determined as the sum of metabolite in the apical and basolateral compartments at 2 hours minus the total amount measured at 1 hour.
Because the incubation medium contained significant amounts of FBS, the fraction of MDZ bound to culture medium proteins was measured by equilibrium dialysis. […] The unbound concentration of MDZ in the apical and basolateral compartments during cell culture was calculated as the product of the experimentally determined MDZ-free fraction and total MDZ concentration. Since MDZ concentrations in the apical and basolateral compartments were not at equilibrium during the 1-2 hour MDZ incubation interval, the intracellular reaction was assumed to be driven by a MDZ concentration that was more closely aligned with the concentration in the basolateral compartment.
At the end of this period, the medium was replaced with medium containing neither serum nor vitamin D. Next, MDZ (4 μM) was added to the apical compartment.

CYP3A = settings: K. E. Thummel et al.; cited from earlier work
[3] = Intrinsic 1'-OH-MDZ formation clearance, human duodenal mucosa/microsomes; type: in vitro ADME; settings: duodenal microsomes; eight human duodenal preparations, Vmax/Km; read-out: Microsomal intrinsic clearance (1'-OH-MDZ formation), duodenum
Method: as §1, §2

[4] = test system: human duodenal microsomes (CYP3A); test: as above; type: in vitro ADME; settings: eight human duodenal preparations, Vmax/Km; listed as MDZ
Method: as §1, §2

Caco-2 cells = test: Apical/basolateral distribution of midazolam and metabolite across Caco-2 monolayers
From the text: At the end of this period, the medium was replaced with medium not containing vitamin D (except that contributed by the 5% FBS).

[5] = M. F. Paine et al.; cited from earlier work
[6] = 1α,25-(OH)2 -D3 pretreated cells

Cc1ncc2n1-c1ccc(Cl)cc1C(c1ccccc1F)=NC2 [midazolam]
microsomal CLint [1]: 118 ± 98.2 µL/min/mg | Microsomal intrinsic clearance (1'-OH-MDZ formation), jejunum [2]: 118.3 μl/min/mg protein | predicted unbound intracellular MDZ concentration in Caco-2 cells (CYP3A (Caco-2 cells)): ~ 0.07 μM | rate of 1'-OH-MDZ formation over time (CYP3A (Caco-2 cells); 0-24 h, FIG. 6A): remained roughly constant after 6 hours | time until 1'-OH-MDZ detectable after MDZ administration (CYP3A (Caco-2 cells); 4 μM MDZ to either compartment, cells treated with 0.25 μM 1α,25-(OH)2 -D3): ≤ 1 h | 1'-Hydroxymidazolam formation rate (CYP3A (Caco-2 cells); 1-2 h incubation interval, 4 μM MDZ apical): 75.9 pmol/min/g cells | unbound midazolam concentration, apical (CYP3A (Caco-2 cells); 1-2 h interval): 280 nM | unbound midazolam concentration, basolateral (CYP3A (Caco-2 cells); 1-2 h interval): 66.3 nM | intrinsic 1'-OH-MDZ formation clearance, Caco-2 cells (CYP3A (Caco-2 cells); 1-2 h interval, non-saturating): 1.14 ml/min/g cells | average midazolam concentration, apical (CYP3A (Caco-2 cells); 1-2 h interval, total): 2740 nM | average midazolam concentration, basolateral (CYP3A (Caco-2 cells); 1-2 h interval, total): 650 nM | intrinsic 1'-OH-MDZ formation clearance of Caco-2 cells as percent of duodenal mucosa (CYP3A (Caco-2 cells); [6]): 30% | intrinsic 1'-OH-MDZ formation clearance of Caco-2 cells as percent of jejunal mucosa (CYP3A (Caco-2 cells); [6]): 31% | Km (CYP3A): ~3.4 µM | microsomal CLint [3]: 134 ± 109 µL/min/mg | Microsomal intrinsic clearance (1'-OH-MDZ formation), duodenum [4]: 133.8 μl/min/mg protein | apical-to-basolateral concentration gradient of parent compound (Caco-2 cells; apical administration of 4 μM MDZ, 12-24 h): approximately 1.4 fold | distribution of parent compound after basolateral administration (Caco-2 cells; by 12 hours): distributed preferentially to the apical medium | site of midazolam glucuronidation in vivo [5]: occurs primarily in the liver and not in the intestine in vivo
